Patent publication US7629376B2, “3-substituted-5- and 6-aminoalkyl indole-2-carboxylic acid amides and related analogs as inhibitors of casein kinase I” (Aventis Pharmaceuticals Inc., priority 2004, dated 2009)

Target: T1, casein kinase 1ε (Homo sapiens, UniProt P49674)
T1 construct: made in house
Test: Casein Kinase Epsilon 33P-ATP Filter Plate Assay for Screening CK1ε Inhibitors
Type: biochemical
Procedure: Casein Kinase Epsilon ^33P-ATP Filter Plate Assay for Screening CK1ε Inhibitors
Purpose: This assay measures the ability of compounds to inhibit the phosphorylation of the substrate casein by the enzyme casein kinase 1ε using an in vitro ^33P-ATP filtration assay.
The above are stored as 100 μL aliquots at minus 80° C. • Compounds: • Supply compounds for testing as frozen 10 mM compound stock dissolved in 100% DMSO. Assay Conditions: • Final total assay volume per well is equal to 50 μL that one prepares as follows: • 5 μL of diluted compound stock (10, 1, 0.1, 0.01 or 0.001 μM), • 5 μL of dephosphorylated casein final concentration 0.2 μg/μL, • 20 μL of CK1ε final concentration 3 ng/μL, and • 20 μL of γ-^33P-ATP final concentration 0.02 μCi/μL mixed with cold ATP (10 μM final). Methodology: • 1. Prepare 500 mL of fresh assay buffer: 50 mM Tris pH 7.5, 10 nm MgCl2, 2 mM DTT and 1 mM EGTA • 2. Obtain compounds to be evaluated as 10 μL of 10 mM stock dissolved in 100% DMSO. Use a Biomek 2000 liquid handling robot, make serial dilutions to yield 10, 1, 0.1, 0.01 and 0.001 μM final compound dilutions added as 5 μL additions to Falcon U bottom plates. […] A routine screening assay will consist of 32 compounds, which equals 4 assay plates. • 3.
• 4. Add 5 μL of compound as indicated, then add 5 μL of dephosphorylated casein (dissolved in distilled H20) (0.2 μg/μL) and 20 μL CK1ε (3 ng/μL) to the appropriate wells. • 5. Finally add 20 μL γ-^33P-ATP (0.02 μCi/μL)/10 μM cold ATP (equals approximately 2×10^6 CPM per well). • 6. Vortes the Falcon U-Bottom assay plate containing the above 50 μL reaction volume and then incubate at room temperature for 2 hours. • 7. At the end of 2 hours, stop the reaction by the addition of 65 μL of ice cold 2 mM cold ATP (made up in assay buffer) to the assay plates using a Beckman Multimek. • 8. At the same time add 25 μL 100% ice cold TCA made up in distilled H20 to a matching number of Millipore MAPH filter plates. • 9. Using a handheld 8-channel pipettor, transfer 100 μL of the reaction mixture from the Falcon U-Bottom Plate to the Millipore MAPH filter plates presoaked with TCA. • 10. Mix the Millipore MAPH filter plates gently and allow to sit at room temperature for at least 30 minutes to precipitate the proteins. • 11. After 30 minutes, place the filter plates on a Millipore vacuum manifold and filter at no more than 8 mm Hg as the MAPH filters tend to “air lock” at higher vacuum settings. • 12. […] Allow the plates to dry overnight at room temperature. The next day add 40 μL Packard Microscint-20 Scintillation Fluid per well using a Titertek Multidrop dispenser; seal the plates and count for 2 minutes/well in a Packard Topcount NXT Scintillation Counter (to provide CPM values/well). Calculation: • 1. Import Counts Per Minute (CPM) data into a proprietary data calculation and archiving database (Activity Base by IDBS version 5.0). • 2. Column 1 for each plate reflects total phosphorylation activity of the enzyme in the absence of any inhibiting compound and thus represents 100%. Column 12 reflects any nonspecific phosphorylation/retained radioactivity activity in the absence of inhibiting compound and enzyme. Typically one observes approximately 1% of Total CPMs that are “nonspecific”. • 3.

T1 sequence (P49674 whole entry): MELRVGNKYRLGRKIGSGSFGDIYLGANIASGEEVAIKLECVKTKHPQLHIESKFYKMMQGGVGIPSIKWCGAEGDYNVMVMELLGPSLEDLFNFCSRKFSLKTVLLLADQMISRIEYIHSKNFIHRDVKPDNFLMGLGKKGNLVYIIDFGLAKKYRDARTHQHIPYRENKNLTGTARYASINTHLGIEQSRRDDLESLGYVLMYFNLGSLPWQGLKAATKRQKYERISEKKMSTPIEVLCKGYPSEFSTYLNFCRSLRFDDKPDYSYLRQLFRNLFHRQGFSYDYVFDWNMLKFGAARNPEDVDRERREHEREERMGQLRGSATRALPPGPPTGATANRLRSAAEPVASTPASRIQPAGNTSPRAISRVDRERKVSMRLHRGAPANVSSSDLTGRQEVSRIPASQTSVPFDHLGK

Compound	Ki
NC(=O)c1[nH]c2ccc(CNCc3ccccc3)cc2c1Sc1ccccc1 [If, 5-(Benzylaminomethyl)-3-phenylsulfanyl-1H-indole-2-carboxylic acid amide]	0.71 µM
COc1ccc2ccccc2c1CNCc1ccc2c(Sc3ccccc3)c(C(N)=O)[nH]c2c1 [IIv]	1.01 µM
CCNCc1ccc2[nH]c(C(N)=O)c(Sc3ccccc3)c2c1 [Iad, 5-Ethylaminomethyl-3-phenylsulfanyl-1H-indole-2-carboxylic acid amide]	0.09 µM
NC(=O)CC[C@H](N)C(=O)NCc1ccc2c(Sc3ccccc3)c(C(N)=O)[nH]c2c1 [IIr, 2-Aminopentanedioic acid 5-amide 1-[(2-carbamoyl-3-phenylsulfanyl-1H-indol-6-ylmethyl)-amide]]	0.27 µM
NC(=O)c1[nH]c2ccc(CN3CCCC(C(N)=O)C3)cc2c1Sc1ccccc1 (centres unmarked) [Io, 5-(3-Carbamoylpiperidin-1-ylmethyl)-3-phenylsulfanyl-1H-indole-2-carboxylic acid amide]	~10 µM
NC(=O)c1[nH]c2cc(CNCc3ccc(-c4ccccc4Cl)o3)ccc2c1Sc1ccccc1 [IIar, 6-({[5-(2-Chlorophenyl)-furan-2-ylmethyl]amino}methyl)-3-phenylsulfanyl-1H-indole-2-carboxylic acid amide]	2.54 µM
COc1cccc(CNCc2ccc3c(Sc4ccccc4)c(C(N)=O)[nH]c3c2)c1 [IIy, 6-[(3-Methoxybenzylamino)methyl]-3-phenylsulfanyl-1H-indole-2-carboxylic acid amide]	0.38 µM
NC(=O)c1[nH]c2ccc(CN3CCN(c4ccc(F)cc4)CC3)cc2c1Sc1ccccc1 [Iaa, 5-[4-(4-Fluorophenyl)piperazin-1-ylmethyl]-3-phenylsulfanyl-1H-indole-2-carboxylic acid amide]	> 10 µM
CCCNCc1ccc2[nH]c(C(N)=O)c(Sc3ccccc3)c2c1 [Iae, 3-Phenylsulfanyl-5-propylaminomethyl-1H-indole-2-carboxylic acid amide]	0.58 µM
NC(=O)c1[nH]c2ccc(CNc3ccc4ncccc4c3)cc2c1Sc1ccccc1 [Iu, 3-Phenylsulfanyl-5-(quinolin-6-ylaminomethyl)-1H-indole-2-carboxylic acid amide]	0.6 µM
NC(=O)c1[nH]c2cc(CNCC=C(c3ccccc3)c3ccccc3)ccc2c1Sc1ccccc1 [IIan]	> 10 µM
COc1cc(CNCc2ccc3c(Sc4ccccc4)c(C(N)=O)[nH]c3c2)cc(Br)c1OC [IIai, 6-[(3-Bromo-4,5-dimethoxybenzylamino)methyl]-3-phenylsulfanyl-1H-indole-2-carboxylic acid amide]	0.6 µM
CC(N)C(=O)NCc1ccc2c(Sc3ccccc3)c(C(N)=O)[nH]c2c1 (centres unmarked) [IIo, 6-[(2-Aminopropionylamino)methyl]-3-phenylsulfanyl-1H-indole-2-carboxylic acid amide]	0.17 µM
COc1ccc(CNCc2ccc3c(Sc4ccccc4)c(C(N)=O)[nH]c3c2)cc1 [IIg, 6-[(4-Methoxybenzylamino)methyl]-3-phenylsulfanyl-1H-indole-2-carboxylic acid amide]	0.52 µM
NC(=O)c1[nH]c2cc(CNCc3ccc(C=Cc4ccccc4)cc3)ccc2c1Sc1ccccc1 [IIao, 3-Phenylsulfanyl-6-[(4-styrylbenzylamino)methyl]-1H-indole-2-carboxylic acid amide]	> 10 µM
CC(C)NCc1ccc2[nH]c(C(N)=O)c(Sc3ccccc3)c2c1 [Iaj, 5-(Isopropylaminomethyl)-3-phenylsulfanyl-1H-indole-2-carboxylic acid amide]	0.54 µM
NC(=O)c1[nH]c2ccc(CN3CCOCC3)cc2c1Sc1ccccc1 [Ii, 5-Morpholin-4-ylmethyl-3-phenylsulfanyl-1H-indole-2-carboxylic acid amide]	0.24 µM
NCc1ccc2c(Sc3ccccc3)c(C(N)=O)[nH]c2c1 [IIa, 6-Aminomethyl-3-phenylsulfanyl-1H-indole-2-carboxylic acid amide]	0.097 µM
NC(=O)c1[nH]c2ccc(CN3CCCCC3)cc2c1Sc1ccccc1 [Il, 3-Phenylsulfanyl-5-piperidin-1ylmethyl-1H-indole-2-carboxylic acid amide]	0.88 µM
NC(=O)c1[nH]c2cc(CNC(=O)C(N)CC(=O)O)ccc2c1Sc1ccccc1 (centres unmarked) [IIae, 3-Amino-N-(2-carbamoyl-3-phenylsulfanyl-1H-indol-6-ylmethyl)succinamic acid]	0.78 µM
NC(=O)c1[nH]c2cc(CNCc3ccc([N+](=O)[O-])cc3)ccc2c1Sc1ccccc1 [IId, 6-[(4-Nitrobenzylamino)methyl]-3-phenylsulfanyl-1H-indole-2-carboxylic acid amide]	0.47 µM
CNCc1ccc2c(c1)c(Sc1ccccc1)c(C(N)=O)n2C [Ig, 1-Methyl-5-methylaminomethyl-3-phenylsulfanyl-1H-indole-2-carboxylic acid amide]	4.45 µM

Compound	Ki
CCCCNCc1ccc2[nH]c(C(N)=O)c(Sc3ccccc3)c2c1 [Ik, 5-Butylaminomethyl-3-phenylsulfanyl-1H-indole-2-carboxylic acid amide]	0.093 µM
NC(=O)c1[nH]c2cc(CN(C/C=C/c3ccco3)C/C=C/c3ccco3)ccc2c1Sc1ccccc1 [IIag]	6.92 µM
NC(=O)c1[nH]c2cc(CNCc3ccccc3[N+](=O)[O-])ccc2c1Sc1ccccc1 [IIl, 6-[(2-Nitrobenzylamino)methyl]-3-phenylsulfanyl-1H-indole-2-carboxylic acid amide]	1.77 µM
CCCCc1ccc(NCc2ccc3[nH]c(C(N)=O)c(Sc4ccccc4)c3c2)cc1 [Iah, 5-[(4-Butylphenylamino)methyl]-3-phenylsulfanyl-1H-indole-2-carboxylic acid amide]	4.28 µM
NCCCC[C@H](N)C(=O)NCc1ccc2c(Sc3ccccc3)c(C(N)=O)[nH]c2c1 [IIad, 6-[(2,6-Diaminohexanoylamino)methyl]-3-phenylsulfanyl-1H-indole-2-carboxylic acid amide]	0.11 µM
NC(=O)c1[nH]c2cc(CNCc3ccc([N+](=O)[O-])o3)ccc2c1Sc1ccccc1 [IIau, 6-{[(5-Nitrofuran-2-ylmethyl)amino]methyl}-3-phenylsulfanyl-1H-indole-2-carboxylic acid amide]	0.7 µM
CN(C)c1ccc(CNCc2ccc3c(Sc4ccccc4)c(C(N)=O)[nH]c3c2)cc1 [IIe, 6-[(4-Dimethylaminobenzylamino)methyl]-3-phenylsulfanyl-1H-indole-2-carboxylic acid amide]	0.73 µM
NC(=O)c1[nH]c2cc(CNCc3c4ccccc4c(Cl)c4ccccc34)ccc2c1Sc1ccccc1 [IIaf, 6-{[(10-Chloro-anthracen-9-ylmethyl)amino]methyl}-3-phenylsulfanyl-1H-indole-2-carboxylic acid amide]	4.83 µM
NC(=O)c1[nH]c2cc(CNCc3ccc(C(F)(F)F)cc3)ccc2c1Sc1ccccc1 [IIm, 3-Phenalsulfanyl-6-[(4-trifluoromethylbenzylamino)methyl]-1H-indole-2-carboxylic acid amide]	4.88 µM
NC(=O)c1[nH]c2cc(CNCc3cc(F)cc(C(F)(F)F)c3)ccc2c1Sc1ccccc1 [IIn, 6-[(3-Fluoro-5-trifluoromethylbenzylamino)methyl]-3-phenylsulfanyl-1H-indole-2-carboxylic acid amide]	4.99 µM
CC(CO)(CO)NCc1ccc2[nH]c(C(N)=O)c(Sc3ccccc3)c2c1 [Iv, 5-[(2-Hydroxy-1-hydroxymethyl-1-methyl-ethylamino)methyl]-3-phenylsulfanyl-1H-indole-2-carboxylic acid amide]	0.36 µM
NC(=O)c1[nH]c2cc(CNCc3cccc([N+](=O)[O-])c3)ccc2c1Sc1ccccc1 [IIk, 6-[(3-Nitrobenzylamino)methyl]-3-phenylsulfanyl-1H-indole-2-carboxylic acid amide]	1.19 µM
NC(=O)c1[nH]c2cc(CNC(=O)[C@@H](N)Cc3c[nH]c4ccccc34)ccc2c1Sc1ccccc1 [IIs]	0.1 µM
COc1ccc(CNCc2ccc3c(Sc4ccccc4)c(C(N)=O)[nH]c3c2)cc1OCc1ccccc1 [IIak, 6-[(3-Benzyloxy-4-methoxybenzylamino)methyl]-3-phenylsulfanyl-1H-indole-2-carboxylic acid amide]	0.64 µM
NCC(=O)NCc1ccc2c(Sc3ccccc3)c(C(N)=O)[nH]c2c1 [IIp, 6-[(2-Aminoacetylamino)methyl]-3-phenylsulfanyl-1H-indole-2-carboxylic acid amide]	0.12 µM
COc1ccccc1CNCc1ccc2c(Sc3ccccc3)c(C(N)=O)[nH]c2c1 [IIac, 6-[(2-Methoxybenzylamino)methyl]-3-phenylsulfanyl-1H-indole-2-carboxylic acid amide]	0.24 µM
NC(=O)c1[nH]c2ccc(CN3CCC(CO)CC3)cc2c1Sc1ccccc1 [Ih, 5-(4-Hydroxymethylpiperidin-1-ylmethyl)-3-phenylsulfanyl-1H-indole-2-carboxylic acid amide]	1.74 µM
NC(=O)c1[nH]c2cc(CN(Cc3ccc([N+](=O)[O-])o3)Cc3ccc([N+](=O)[O-])o3)ccc2c1Sc1ccccc1 [IIat, 6-{[Bis-(5-nitrofuran-2-ylmethyl)amino]methyl}-3-phenylsulfanyl-1H-indole-2-carboxylic acid amide]	> 10 µM
COc1ccc(CNCc2ccc3c(Sc4ccccc4)c(C(N)=O)[nH]c3c2)c(OC)c1 [IIw, 6-[(2,4-Dimethoxybenzylamino)methyl]-3-phenylsulfanyl-1H-indole-2-carboxylic acid amide]	0.29 µM
NC(=O)c1[nH]c2ccc(CN3CCCC3CO)cc2c1Sc1ccccc1 (centres unmarked) [Iw, 5-(2-Hydroxymethyl-pyrrolidin-1-ylmethyl)-3-phenylsulfanyl-1H-indole-2-carboxylic acid amide]	0.065 µM
CCC(C)C(N)C(=O)NCc1ccc2c(Sc3ccccc3)c(C(N)=O)[nH]c2c1 (centres unmarked) [IIq, 6-[(2-Amino-3-methylpentanoylamino)methyl]-3-phenylsulfanyl-1H-indole-2-carboxylic acid amide]	0.15 µM
NC(=O)c1[nH]c2ccc(CNc3cccc(C(F)(F)F)c3)cc2c1Sc1ccccc1 [Iac, 3-Phenylsulfanyl-5-[(3-trifluoromethyl-phenylamino)methyl]-1H-indole-2-carboxylic acid amide]	~10 µM
